Experimental data taken from patent US8952024B2, “Herbicidal pyrimidone derivatives” (E I du Pont de Nemours and Company, priority 2009, dated 2015).

Key:
Experiment in all cases: Test B pre-/postemergence plant response
Type in all cases: in vivo
[1] = system: lambsquarters (Chenopodium album)
Method in brief: (§1)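 Compound in solvent + surfactant applied pre-em (loam/sand) or post-em (plants 2–18 cm, peat medium); greenhouse hold 13–15 days; visual 0–100 control score.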

[2] = system: giant foxtail (Setaria faberii)
Method in brief: as §1

[3] = system: large crabgrass (Digitaria sanguinalis)
Method in brief: as §1

[4] = system: yellow nutsedge (Cyperus esculentus)
Method in brief: as §1

[5] = system: downy bromegrass (Bromus tectorum)
Method in brief: as §1

kochia (Kochia scoparia) = settings: Postemergence; for Plant response rating, Kochia: scale 0 (no effect) to 100 (complete control)
Method in brief: as §1

[6] = system: johnsongrass (Sorghum halepense)
Method in brief: as §1

[7] = system: wheat (Triticum aestivum)
Method in brief: as §1

[8] = system: woolly cupgrass (Eriochloa villosa)
Method in brief: as §1

[9] = system: green foxtail (Setaria viridis)
Method in brief: as §1

[10] = system: goosegrass (Eleusine indica)
Method in brief: as §1

[11] = system: pigweed (Amaranthus retroflexus)
Method in brief: as §1

[12] = system: velvetleaf (Abutilon theophrasti)
Method in brief: as §1

[13] = 250 g ai/ha, Preemergence, 0 to 100 scale
[14] = Postemergence, 62 g ai/ha, scale 0 (no effect) to 100 (complete control), 13 to 15 days
[15] = Postemergence, 125 g ai/ha, visual rating after 13 to 15 days, scale 0 (no effect) to 100 (complete control)
[16] = Postemergence, 250 g ai/ha, scale 0 to 100
[17] = Preemergence, 31 g ai/ha, scale 0 to 100 (0 no effect, 100 complete control)
[18] = Preemergence, 62 g ai/ha, scale 0 to 100 (0 no effect, 100 complete control)
[19] = Preemergence, 125 g ai/ha, 0 to 100 scale
[20] = Postemergence, 31 g ai/ha, scale 0 to 100 (0 no effect, 100 complete control)

Question: How did the “Plant response rating, Lambsquarters” value [1, 13] turn out when `O=C1CCCC(O)=C1C(=O)c1cnc(-c2ccccc2)n(-c2cccc(Br)c2)c1=O` [Compound 38] was run?
Answer: 100

Question: What about the “Plant response rating, Lambsquarters” value [1, 14] of the same compound?
Answer: 95

Question: And the “Plant response rating, Lambsquarters” value [1, 15]?
Answer: 100

Question: And the “Lambsquarters plant response rating” value [1, 16]?
Answer: 100

Question: What about the “Plant response rating, Lambsquarters” value [1, 17] of the same compound?
Answer: 98

Question: And the “Plant response rating, Lambsquarters” value [1, 18]?
Answer: 98

Question: What about the “Lambsquarters plant response rating” value [1, 19] of the same compound?
Answer: 100

Question: What about the “Plant response rating, Foxtail, Giant” value [2, 13] of the same compound?
Answer: 95

Question: And the “Plant response rating, Foxtail, Giant” value [2, 20]?
Answer: 95

Question: And the “Plant response rating, Foxtail, Giant” value [2, 14]?
Answer: 98

Question: And the “Plant response rating, Foxtail, Giant” value [2, 15]?
Answer: 100

Question: And the “Foxtail, Giant plant response rating” value [2, 16]?
Answer: 100

Question: And the “Plant response rating, Foxtail, Giant” value [2, 17]?
Answer: 0

Question: What about the “Plant response rating, Foxtail, Giant” value [2, 18] of the same compound?
Answer: 40

Question: What about the “Foxtail, Giant plant response rating” value [2, 19] of the same compound?
Answer: 80

Question: What about the “Plant response rating, Crabgrass, Large” value [3, 13] of the same compound?
Answer: 100

Question: What about the “Plant response rating, Crabgrass, Large” value [3, 20] of the same compound?
Answer: 90

Question: What about the “Plant response rating, Crabgrass, Large” value [3, 14] of the same compound?
Answer: 90

Question: What about the “Plant response rating, Crabgrass, Large” value [3, 15] of the same compound?
Answer: 98

Question: What about the “Crabgrass, Large plant response rating” value [3, 16] of the same compound?
Answer: 100

Question: And the “Plant response rating, Crabgrass, Large” value [3, 17]?
Answer: 60

Question: What about the “Plant response rating, Crabgrass, Large” value [3, 18] of the same compound?
Answer: 90

Question: What about the “Crabgrass, Large plant response rating” value [3, 19] of the same compound?
Answer: 100

Question: And the “Plant response rating, Nutsedge, Yellow” value [4, 13]?
Answer: 80

Question: What about the “Plant response rating, Nutsedge, Yellow” value [4, 14] of the same compound?
Answer: 0

Question: And the “Plant response rating, Nutsedge, Yellow” value [4, 15]?
Answer: 15

Question: What about the “Plant response rating, Nutsedge, Yellow” value [4, 17] of the same compound?
Answer: 10

Question: What about the “Nutsedge, Yellow plant response rating” value [4, 19] of the same compound?
Answer: 70

Question: And the “Plant response rating, Bromegrass, Downy” value [5, 13]?
Answer: 40

Question: And the “Plant response rating, Bromegrass, Downy” value [5, 20]?
Answer: 50

Question: What about the “Plant response rating, Bromegrass, Downy” value [5, 14] of the same compound?
Answer: 70

Question: And the “Plant response rating, Bromegrass, Downy” value [5, 15]?
Answer: 85

Question: What about the “Bromegrass, Downy plant response rating” value [5, 16] of the same compound?
Answer: 85

Question: What about the “Plant response rating, Bromegrass, Downy” value [5, 17] of the same compound?
Answer: 0

Question: And the “Plant response rating, Bromegrass, Downy” value [5, 18]?
Answer: 0

Question: What about the “Bromegrass, Downy plant response rating” value [5, 19] of the same compound?
Answer: 5

Question: And the “Plant response rating, Kochia” value (kochia (Kochia scoparia); 62 g ai/ha, 13 to 15 days)?
Answer: 80

Question: What about the “Plant response rating, Kochia” value (kochia (Kochia scoparia); 125 g ai/ha, visual rating after 13 to 15 days) of the same compound?
Answer: 100

Question: What about the “Kochia plant response rating” value (kochia (Kochia scoparia); 250 g ai/ha, scale 0 to 100) of the same compound?
Answer: 100

Question: And the “Plant response rating, Johnsongrass” value [6, 13]?
Answer: 95

Question: What about the “Plant response rating, Johnsongrass” value [6, 14] of the same compound?
Answer: 75

Question: What about the “Plant response rating, Johnsongrass” value [6, 15] of the same compound?
Answer: 95

Question: And the “Johnsongrass plant response rating” value [6, 16]?
Answer: 100

Question: And the “Plant response rating, Johnsongrass” value [6, 17]?
Answer: 10

Question: What about the “Plant response rating, Johnsongrass” value [6, 18] of the same compound?
Answer: 80

Question: And the “Johnsongrass plant response rating” value [6, 19]?
Answer: 85

Question: And the “Plant response rating, Wheat” value [7, 13]?
Answer: 5

Question: And the “Plant response rating, Wheat” value [7, 14]?
Answer: 20

Question: What about the “Plant response rating, Wheat” value [7, 15] of the same compound?
Answer: 40

Question: And the “Plant response rating, Wheat” value [7, 17]?
Answer: 0

Question: And the “Wheat plant response rating” value [7, 19]?
Answer: 0

Question: And the “Plant response rating, Cupgrass, Woolly” value [8, 13]?
Answer: 80

Question: And the “Plant response rating, Cupgrass, Woolly” value [8, 20]?
Answer: 80

Question: And the “Plant response rating, Cupgrass, Woolly” value [8, 14]?
Answer: 90

Question: And the “Plant response rating, Cupgrass, Woolly” value [8, 15]?
Answer: 95

Question: And the “Cupgrass, Woolly plant response rating” value [8, 16]?
Answer: 100

Question: And the “Plant response rating, Cupgrass, Woolly” value [8, 17]?
Answer: 0

Question: What about the “Plant response rating, Cupgrass, Woolly” value [8, 18] of the same compound?
Answer: 10

Question: What about the “Cupgrass, Woolly plant response rating” value [8, 19] of the same compound?
Answer: 60

Question: What about the “Plant response rating, Foxtail, Green” value [9, 13] of the same compound?
Answer: 100

Question: And the “Plant response rating, Foxtail, Green” value [9, 20]?
Answer: 85

Question: And the “Plant response rating, Foxtail, Green” value [9, 14]?
Answer: 90

Question: What about the “Plant response rating, Foxtail, Green” value [9, 15] of the same compound?
Answer: 95

Question: What about the “Foxtail, Green plant response rating” value [9, 16] of the same compound?
Answer: 95

Question: And the “Plant response rating, Foxtail, Green” value [9, 17]?
Answer: 20

Question: What about the “Plant response rating, Foxtail, Green” value [9, 18] of the same compound?
Answer: 30

Question: And the “Foxtail, Green plant response rating” value [9, 19]?
Answer: 85

Question: What about the “Plant response rating, Goosegrass” value [10, 13] of the same compound?
Answer: 100

Question: What about the “Plant response rating, Goosegrass” value [10, 14] of the same compound?
Answer: 85

Question: And the “Plant response rating, Goosegrass” value [10, 15]?
Answer: 90

Question: And the “Goosegrass plant response rating” value [10, 16]?
Answer: 95

Question: And the “Plant response rating, Goosegrass” value [10, 17]?
Answer: 95

Question: What about the “Goosegrass plant response rating” value [10, 19] of the same compound?
Answer: 100

Question: What about the “Plant response rating, Pigweed” value [11, 13] of the same compound?
Answer: 100

Question: And the “Plant response rating, Pigweed” value [11, 14]?
Answer: 98

Question: And the “Plant response rating, Pigweed” value [11, 15]?
Answer: 98

Question: What about the “Plant response rating, Pigweed” value [11, 17] of the same compound?
Answer: 100

Question: What about the “Pigweed plant response rating” value [11, 19] of the same compound?
Answer: 100

Question: What about the “Plant response rating, Velvetleaf” value [12, 13] of the same compound?
Answer: 100

Question: And the “Plant response rating, Velvetleaf” value [12, 14]?
Answer: 100

Question: What about the “Plant response rating, Velvetleaf” value [12, 15] of the same compound?
Answer: 100

Question: And the “Plant response rating, Velvetleaf” value [12, 17]?
Answer: 55

Question: And the “Velvetleaf plant response rating” value [12, 19]?
Answer: 98
